The source of these data is ChEMBL document CHEMBL1201862, “PubChem BioAssay data set” (2004).

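Interpolation was linear, between the two tested concentrations surrounding the appropriate level; five concentrations were tested over 48 hours in 96-well plates. GI50 marks 50% less growth.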 Activity calls are given as the source filed them. No stated cut-off is given here; in the data, active = GI50 up to about 1.1 µM and inactive = higher.

Test systems include A549; CCRF-CEM; DMS-114; EKVX; HCC 2998; HCT-15; M19-MEL; MOLT-4; NCI-H460; SF-268; SF-539; SN12C; SW-620; BT-549; Hs-578T; MCF7; MDA-MB-231; NCI-H226; RXF 393; T47D.
Holding throughout (assay): growth of human tumour cells (NCI), 48 h

For the compound `CCOC(C)C(/C=N/NC(N)=S)=NNC(N)=S` (stereo not drawn) [GLOXAZONE], the GI50 in the experiment with A549 is > 100 µM (inactive); in the experiment on CCRF-CEM, < 0.0208 µM (active); in the experiment with DMS-114 it was < 0.01 µM (active); with EKVX, 0.248 µM (active); in the experiment on HCC 2998 it was > 100 µM (inactive); in the experiment on HCT-15, more than 100 µM. Moreover, the GI50 with M19-MEL was > 100 µM (inactive); with MOLT-4, < 0.0254 µM (active); in the experiment with NCI-H460, > 100 µM (inactive); in the experiment on SF-268, > 100 µM (inactive); in the experiment with SF-539 it was > 100 µM (inactive); with SN12C, > 100 µM (inactive). For the same compound, the GI50 with SW-620 is > 100 µM (inactive).
As for `COC(Cc1ccccc1)NC(C)=O` (stereo not drawn), the GI50 in the experiment with A549 is > 100 µM (inactive); in the experiment on BT-549, > 100 µM (inactive); in the experiment on CCRF-CEM, > 100 µM (inactive); in the experiment with EKVX, > 100 µM (inactive); with HCC 2998 it was > 100 µM (inactive); in the experiment on HCT-15 it was more than 100 µM. Further, the GI50 in the experiment with Hs-578T, in the experiment on MCF7, in the experiment on MDA-MB-231, in the experiment with MOLT-4, in the experiment on NCI-H226 and in the experiment with NCI-H460 was > 100 µM (inactive) each time. The GI50 with RXF 393, in the experiment with SF-268, in the experiment on SF-539, with SN12C, in the experiment with SW-620 and in the experiment with T47D was > 100 µM (inactive) each time.
Turning to `COc1cc(/C=N/N=C(\N)NO)ccc1O`, the GI50 in the experiment with A549 was 47.3 µM (inactive); with CCRF-CEM, > 100 µM (inactive); in the experiment on DMS-114, 39.9 µM (inactive); with EKVX it was 71.9 µM (inactive); in the experiment on HCT-15, 50 µM; in the experiment on MOLT-4 it was 65.9 µM (inactive). The GI50 in the experiment on NCI-H226 is 14.1 µM (inactive); with NCI-H460, 38.8 µM (inactive); in the experiment on RXF 393, 31.5 µM (inactive); with SF-268, 56 µM (inactive); with SF-539, 46.3 µM (inactive); in the experiment with SN12C it was > 100 µM (inactive). The GI50 with SW-620 is 68.2 µM (inactive).
Take `COc1cc(O)c2c(c1)C(O)C(O)CC1OC1C(=O)/C=C/CC(C)OC2=O` (stereo not drawn): the GI50 in the experiment on A549 is 20.5 µM (inactive); in the experiment on BT-549, 0.979 µM (active); with CCRF-CEM, 1.26 µM (inactive); with EKVX, 8.53 µM (inactive); in the experiment on HCC 2998 it was 6.34 µM (inactive); in the experiment on HCT-15, 2.93 µM. For the same compound, the GI50 in the experiment on Hs-578T was 10 µM (inactive); in the experiment with MCF7 it was 4.07 µM (inactive); with MDA-MB-231 it was 3.86 µM (inactive); in the experiment with MOLT-4, 2.03 µM (inactive); in the experiment with NCI-H226 it was 12.9 µM (inactive); in the experiment with NCI-H460, 7.03 µM (inactive). Moreover, the GI50 in the experiment on RXF 393 is 0.982 µM (active); with SF-268, 10.4 µM (inactive); with SF-539, 3.99 µM (inactive); in the experiment on SN12C, 3.72 µM (inactive); in the experiment on SW-620, 0.412 µM (active); with T47D it was 5.05 µM (inactive).
Take `C[C@H](CCC(=O)O)[C@H]1CC[C@H]2[C@@H]3[C@@H](O)C[C@@H]4C[C@H](O)CC[C@]4(C)[C@H]3CC[C@]12C`: the GI50 in the experiment on A549 is 61.4 µM (inactive); with BT-549 it was 38.8 µM (inactive); in the experiment with CCRF-CEM it was 60.8 µM (inactive); with EKVX, > 100 µM (inactive); in the experiment with HCC 2998, > 100 µM (inactive); in the experiment on HCT-15, 67.3 µM. Moreover, the GI50 with Hs-578T was 59.8 µM (inactive); in the experiment on MCF7 it was 86.7 µM (inactive); with MDA-MB-231, > 100 µM (inactive); in the experiment with MOLT-4 it was 89.7 µM (inactive); with NCI-H226, > 100 µM (inactive); in the experiment with NCI-H460, 58.2 µM (inactive). In addition, the GI50 with RXF 393, with SF-268, in the experiment on SF-539, in the experiment on SN12C, in the experiment on SW-620 and in the experiment on T47D was > 100 µM (inactive) in each case.
Turning to `CN(C)CCC(O)(c1ccccc1)C(O)(CCN(C)C)c1ccccc1` (stereo not drawn), the GI50 was > 100 µM (inactive) in the experiment with A549; > 100 µM (inactive) in the experiment on CCRF-CEM; > 100 µM (inactive) with DMS-114; > 100 µM (inactive) in the experiment on EKVX; > 100 µM (inactive) in the experiment with HCC 2998; more than 100 µM in the experiment on HCT-15. Also, the GI50 with M19-MEL, in the experiment on MOLT-4, in the experiment on NCI-H460, in the experiment on SF-268, in the experiment with SN12C and in the experiment on SW-620 was > 100 µM (inactive) in each case.
Consider `CC1=NN(C(=O)c2ccccc2O)C(=O)/C1=C/c1cccc(O)c1`, for which the GI50 is 0.375 µM (active) in the experiment on A549; 0.392 µM (active) in the experiment on BT-549; 2.88 µM (inactive) in the experiment on CCRF-CEM; 2.77 µM (inactive) in the experiment on EKVX; 12.6 µM (inactive) in the experiment with HCC 2998; 1.46 µM in the experiment with HCT-15. The GI50 in the experiment with M19-MEL was 0.596 µM (active); in the experiment with MCF7, 1.6 µM (inactive); with MDA-MB-231, 38.8 µM (inactive); with NCI-H226, 8.51 µM (inactive); in the experiment with NCI-H460, 0.774 µM (active); in the experiment on RXF 393 it was 0.161 µM (active). Besides, the GI50 in the experiment on SF-268 was 0.637 µM (active); in the experiment with SF-539 it was 0.171 µM (active); in the experiment with SN12C it was 45.9 µM (inactive); in the experiment with SW-620, 3.49 µM (inactive); in the experiment on T47D, 0.472 µM (active).
In the case of `CCOC(=O)c1c(C)n(-c2ccc(C)cc2)c(=O)c2ccccc2c(=O)c2c(=O)ccc(=O)c1=2`, the GI50 in the experiment on A549 is 20.2 µM (inactive); in the experiment on BT-549, 23.3 µM (inactive); in the experiment on CCRF-CEM, 6.34 µM (inactive); with EKVX, 21.6 µM (inactive); in the experiment on HCC 2998, 14.3 µM (inactive); in the experiment with HCT-15, 14.3 µM. In addition, the GI50 with Hs-578T is 21.3 µM (inactive); in the experiment with MCF7, 18.8 µM (inactive); with MDA-MB-231, 16.1 µM (inactive); with MOLT-4 it was 2.87 µM (inactive); with NCI-H226 it was 18.2 µM (inactive); in the experiment with NCI-H460, 19.4 µM (inactive). Further, the GI50 is 17.4 µM (inactive) with RXF 393; 19.8 µM (inactive) in the experiment on SF-268; 21.9 µM (inactive) in the experiment with SF-539; 21.7 µM (inactive) in the experiment on SN12C; 25.6 µM (inactive) with SW-620; 20 µM (inactive) in the experiment on T47D.
`Cc1ccc(Cl)c2c(=O)cc(-c3ccccc3)[nH]c12`: the GI50 with A549 was 46.3 µM (inactive); in the experiment on CCRF-CEM, 52.7 µM (inactive); in the experiment with HCT-15, 46.2 µM; in the experiment with M19-MEL it was 68.7 µM (inactive); in the experiment with MOLT-4 it was 32.9 µM (inactive); in the experiment with NCI-H226 it was 48.3 µM (inactive). Moreover, the GI50 in the experiment with NCI-H460 was 36.2 µM (inactive); with RXF 393, 29.2 µM (inactive); in the experiment with SF-268 it was 58.6 µM (inactive); in the experiment with SF-539, 80.2 µM (inactive); in the experiment with SN12C, 56.4 µM (inactive); in the experiment on SW-620, 67.5 µM (inactive).
For `O=C1C(Cl)=C(NCCOCCO)C(=O)c2c(O)ccc(O)c21`, the GI50 in the experiment with A549 was 5.75 µM (inactive); in the experiment on HCT-15, 1.85 µM; in the experiment on M19-MEL it was 1.81 µM (inactive); in the experiment with MOLT-4, 5.19 µM (inactive); in the experiment on NCI-H226, 18.3 µM (inactive); with NCI-H460, 3.36 µM (inactive). The GI50 is 14.1 µM (inactive) in the experiment with RXF 393, 4.53 µM (inactive) in the experiment with SF-539, 11 µM (inactive) in the experiment on SN12C and 3.55 µM (inactive) in the experiment with SW-620.
Regarding `Clc1ccc(Cc2nc3ccccc3o2)cc1`, the GI50 is 75 µM (inactive) in the experiment on A549; 35.8 µM (inactive) with BT-549; 40.1 µM (inactive) in the experiment with CCRF-CEM; 40.1 µM (inactive) in the experiment with EKVX; 54 µM (inactive) with HCC 2998; 39.3 µM in the experiment on HCT-15. In addition, the GI50 in the experiment on Hs-578T was > 100 µM (inactive); in the experiment with MCF7 it was 51.4 µM (inactive); in the experiment with MDA-MB-231 it was > 100 µM (inactive); with MOLT-4, 38.5 µM (inactive); in the experiment with NCI-H226, 40.4 µM (inactive); in the experiment with NCI-H460 it was > 100 µM (inactive). Moreover, the GI50 with RXF 393 was 25.3 µM (inactive); in the experiment with SF-268, > 100 µM (inactive); in the experiment on SF-539, > 100 µM (inactive); in the experiment with SN12C, > 100 µM (inactive); in the experiment on SW-620, > 100 µM (inactive); with T47D, 27.2 µM (inactive).
Regarding `COc1ccc2c(-c3ccc(OCCN(C)C)cc3)c(Oc3ccc(Cl)cc3)c(=O)oc2c1`, the GI50 in the experiment with A549 is 4.48 µM (inactive); with BT-549, 14.7 µM (inactive); in the experiment on CCRF-CEM it was 4.42 µM (inactive); in the experiment on EKVX it was 11.5 µM (inactive); in the experiment with HCC 2998, 2.83 µM (inactive); with HCT-15, 3.35 µM. The GI50 in the experiment on Hs-578T is 6.01 µM (inactive); with MCF7 it was 2.52 µM (inactive); in the experiment on MDA-MB-231, 6.79 µM (inactive); with MOLT-4, 2.13 µM (inactive); in the experiment on NCI-H226, 23.9 µM (inactive); in the experiment on NCI-H460, 5.58 µM (inactive). The GI50 was 4.18 µM (inactive) with RXF 393; 7.76 µM (inactive) in the experiment with SF-268; 3.74 µM (inactive) with SF-539; 20.2 µM (inactive) in the experiment on SN12C; 5.41 µM (inactive) in the experiment with SW-620; > 20.4 µM (inactive) with T47D.
Consider `Cc1cccc2c1C(=O)[C@](C)([C@]1(C)Nc3cccc(C)c3C1=O)N2`, for which the GI50 in the experiment on A549 was 26.4 µM (inactive); in the experiment with BT-549, 20.8 µM (inactive); with CCRF-CEM, 17.6 µM (inactive); in the experiment with EKVX, 23.7 µM (inactive); with HCC 2998, 31.9 µM (inactive); with HCT-15, 18.2 µM. The GI50 in the experiment on Hs-578T is 21.7 µM (inactive); with MCF7 it was 45.4 µM (inactive); with MDA-MB-231, 37.1 µM (inactive); in the experiment with MOLT-4 it was 23.3 µM (inactive); with NCI-H226 it was 33 µM (inactive); with NCI-H460, 31 µM (inactive). The GI50 with RXF 393 is 54.1 µM (inactive); in the experiment on SF-268 it was 16.1 µM (inactive); in the experiment with SF-539, 29 µM (inactive); in the experiment with SN12C, 29.6 µM (inactive); with SW-620, 30.7 µM (inactive); with T47D, 28.8 µM (inactive).
